20 compounds from patent US20230373972A1, “PIPERAZINE DERIVATIVE, PREPARATION METHOD THEREFOR AND USE THEREOF” (Zhejiang Hisun Pharmaceutical Co., Ltd., priority 2020, published 2023) can be followed below.

The structures appear in SMILES notation.

For orientation: IC50 means the midpoint of a concentration-inhibition curve. A high value points to weaker potency in that assay.

Experiment [1] concerns the target T1, Native human Factor XIa protease (Homo sapiens, UniProt P03951).
T1 construct: The Native human Factor XIa protease was purchased from Abcam; purchased Abcam ab62411
Description: Inhibition of activity of Factor XIa protease (chromogenic substrate S-2366). The experiment is classed as biochemical. The conditions noted are these: S-2366 1 mM, 37° C. 10 minutes, absorption at 405 nm. From the text:
The following method was used to determine an inhibition degree of the compound of the present invention on an activity of Native human Factor XIa protease in vitro. In the method, a Factor XIa chromogenic substrate was used to test the inhibition degree on the activity of the Factor XIa protease. The Native human Factor XIa protease was purchased from Abcam (article number ab62411), and S-2366 was purchased from Chromogenix (article number 82109039). An experimental process was briefly described as follows: a test compound was dissolved in DMSO to prepare a 10 mM storage solution first, then the compound was diluted with a Factor XIa reaction buffer (100 mM Tris-HCl, 200 mM NaCl, 0.02% Tween 20, pH 7.4) by a quadruple gradient, and a final concentration of the test compound in a reaction system ranged from 10,000 nM to […]. The reaction was carried out in a 384-well microplate. 2 μL of the test compounds at different concentrations diluted with the reaction buffer were added to wells first, and 2 μL of 1% DMSO (a final concentration of DMSO in the reaction system was 0.1%) was used to replace blank and control wells. Subsequently, 8 μL of enzyme working solution (a final concentration of Factor XIa was […]) was added to each well, and 8 μL of Factor XIa reaction buffer was used to replace the blank well, centrifuged for 30 seconds, and incubated on ice for 5 minutes. Finally, 10 μL of substrate working solution (a final concentration of S-2366 was 1 mM) was added to each well, and centrifuged for 30 seconds, and the reaction was started. The solution was incubated at 37° C. for 10 minutes to determine a light absorption value at 405 nm. By comparing with a light absorption value of the control group (0.1% DMSO), a percentage inhibition rate of the compound at each concentration was calculated, and nonlinear regression analysis was carried out on value-inhibition rate with the concentration of the compound by GraphPad Prism 5 software, so as to obtain an IC50 value of the compound, as shown in Table 1.

For another experiment, the system named is human plasma. Description: In-vitro anticoagulation on human plasma (APTT kit, coagulation time). The conditions noted are these: concentration of the compound when the coagulation time (APTT) was prolonged twice. The protocol:
The following method was used to determine the in-vitro anticoagulation of the compound of the present invention in the human plasma. In the method, an APTT kit of the MediRox company was used to test. The APTT kit was purchased from MediRox (article number MRX930), and the human plasma was prepared internally.
The preparation of the human plasma was briefly described as follows: human plasma was collected in a blood collection tube containing sodium citrate, and centrifuged at 3,000 rpm for 10 minutes at room temperature, and plasma was collected, and packaged separately and stored at −80° C.
An APTT test process was briefly described as follows: a test compound was dissolved in DMSO to prepare a 10 mM storage solution first, then the test compound was diluted with DMSO by a triple gradient, and a final concentration of the test compound in a reaction system ranged from 217 μM to 0.03 μM. 4 μL, of test compounds at different concentrations diluted with DMSO were added to a centrifuge tube containing 180 μL of plasma, and 4 μL of DMSO was added to a blank group, shaken and mixed evenly, and incubated at 37° C. for 5 minutes. Subsequently, an APTT reagent was placed in a reagent holder according to instrument requirements, the incubated plasma sample was placed in a detection position of a coagulation analyzer, and a coagulation time was determined and recorded (s). With a final concentration of the compound as an abscissa and Ratio (Ratio=TiT0, wherein T0 was a coagulation time of a blank control, and Ti was a coagulation time of a compound to be tested) as an ordinate, a coagulation dose-effect curve was drawn by Graph Pad Prisms, and a concentration of the compound when the coagulation time was prolonged twice was calculated, which was namely a CT2 value, as shown in Table 2.

T1 sequence (P03951 388-625 limits assumed): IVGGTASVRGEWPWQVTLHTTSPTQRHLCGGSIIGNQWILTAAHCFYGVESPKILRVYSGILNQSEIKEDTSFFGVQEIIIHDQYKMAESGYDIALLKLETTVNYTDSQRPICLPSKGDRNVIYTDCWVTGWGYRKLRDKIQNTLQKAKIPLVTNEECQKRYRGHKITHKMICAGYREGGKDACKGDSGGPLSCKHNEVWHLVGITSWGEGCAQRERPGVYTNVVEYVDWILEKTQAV
T1 sequence (P03951 19-387 partner limits assumed): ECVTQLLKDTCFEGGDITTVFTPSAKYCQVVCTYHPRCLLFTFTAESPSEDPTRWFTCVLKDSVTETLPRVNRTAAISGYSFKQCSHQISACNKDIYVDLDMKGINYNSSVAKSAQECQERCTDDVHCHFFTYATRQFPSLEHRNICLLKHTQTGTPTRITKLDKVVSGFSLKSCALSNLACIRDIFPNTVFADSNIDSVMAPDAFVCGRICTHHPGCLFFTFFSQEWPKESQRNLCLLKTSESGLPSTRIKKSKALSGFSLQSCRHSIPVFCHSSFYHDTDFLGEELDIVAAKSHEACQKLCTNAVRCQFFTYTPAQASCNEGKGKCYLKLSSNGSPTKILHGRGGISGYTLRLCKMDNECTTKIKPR

The compound `O=C(Nc1ccc2nccnc2c1)C(Cc1ccccc1)N1CC(=O)N(c2cc(Cl)ccc2-n2cc(Cl)nn2)CC1=O` (centres unmarked) [Example 24, 2-(4-(5-Chloro-2-(4-chloro-1H-1,2,3-triazol-1-yl)phenyl)-2,5-dioxopiperazin-1-yl)-3-phenyl-N-(quinoxalin-6-yl)propanamide] returned an IC50 in experiment [1] of 23.2 nM.
`Cn1cc(CC(C(=O)Nc2ccc3nn(C)cc3c2)N2CC(=O)N(c3cc(Cl)ccc3-n3cc(Cl)nn3)CC2=O)cn1` (centres unmarked) [Example 131, 2-(4-(5-chloro-2-(4-chloro-1H-1,2,3-triazol-1-yl)phenyl)-2,5-dioxopiperazin-1-yl)-3-(1-methyl-1H-pyrazol-4-yl)-N-(2-methyl-2H-indazol-5-yl)propanamide]: in the experiment on human plasma, the “CT2” value was determined as 11.5 µM.
In the case of `O=C(Nc1ccn2nccc2c1)C(Cc1ccccc1)N1CC(=O)N(c2cc(Cl)ccc2-n2cc(Cl)nn2)CC1=O` (centres unmarked) [Example 40, 2-(4-(5-chloro-2-(4-chloro-1H-1,2,3-triazol-1-yl)phenyl)-2,5-dioxopiperazin-1-yl)-3-phenyl-N-(pyrazolo[1.5-a]pyridin-5-yl)propanamide], in experiment [1], 44.7 nM corresponded to half-maximal inhibition (IC50).
`COCCC(C(=O)Nc1ccc2nn(C)cc2c1)N1CC(=O)N(c2cc(Cl)ccc2-n2cnnn2)CC1=O` (centres unmarked) [Example 32, 2-(4-(5-Chloro-2-(1H-tetrazol-1-yl)phenyl)-2,5-dioxopiperazin-1-yl)-4-methoxy-N-(2-methyl-2H-indazol-5-yl)butanamide]: in the experiment with human plasma, the “CT2” value was determined as 6.3 µM.
On the same count and under the same terms, the same measure for `Cn1cc2cc(NC(=O)C(CC3CCC3)N3CC(=O)N(c4cc(Cl)ccc4-n4cc(Cl)nn4)CC3=O)ccc2n1` (centres unmarked) [Example 116, 2-(4-(5-chloro-2-(4-chloro-1H-1,2,3-triazol-1-yl)phenyl)-2,5-dioxopiperazin-1-yl)-3-cyclobutyl-N-(2-methyl-2H-indazol-5-yl)propanamide]: 14.0 µM.
Consider `CNC(=O)c1ccc(NC(=O)C(Cc2ccc(F)cc2)N2CC(=O)N(c3cc(Cl)ccc3-n3cc(Cl)nn3)CC2=O)cc1F` (centres unmarked) [Example 134, 4-(2-(4-(5-chloro-2-(4-chloro-1H-1,2,3-triazol-1-yl)phenyl)-2,5-dioxopiperazin-1-yl)-3-(4-fluorophenyl)propanamido)-2-fluoro-N-methylbenzamide], for which the “CT2” value in the experiment on human plasma is 19.4 µM.
Take `COC(=O)N1CCc2cc(NC(=O)C(Cc3ccccc3)N3CC(=O)N(c4cc(Cl)ccc4-n4cnnn4)CC3=O)ccc21` (centres unmarked) [Example 8, Methyl 5-(2-(4-(5-chloro-2-(1H-tetrazol-1-yl)phenyl)-2,5-dioxopiperazin-1-yl)-3-phenylpropanamido)indoline-1-carboxylate]: it took 17.7 nM to reach half-maximal inhibition in experiment [1] (IC50).
On to `O=C(Nc1ccc2ccnn2c1)C(Cc1ccccc1)N1CC(=O)N(c2cc(Cl)ccc2-n2cnnn2)CC1=O` (centres unmarked) [Example 22, 2-(4-(5-Chloro-2-(1H-tetrazol-1-yl)phenyl)-2,5-dioxopiperazin-1-yl)-3-phenyl-N-(pyrazolo[1.5-a]pyridin-6-yl)propanamide], for which the “CT2” value with human plasma stood at 16.0 µM.
As for `Cn1cc2cc(NC(=O)C(Cc3cccc(F)c3)N3CC(=O)N(c4cc(Cl)ccc4-n4cc(Cl)nn4)CC3=O)ccc2n1` (centres unmarked) [Example 46, 2-(4-(5-Chloro-2-(4-chloro-1H-1,2,3-triazol-1-yl)phenyl)-2,5-dioxopiperazin-1-yl)-3-(3-fluorophenyl)-N-(2-methyl-2H-indazol-5-yl)propanamide], the “CT2” value in the experiment on human plasma stood at 19.1 µM.
As to `[2H]C([2H])([2H])n1ccc(CC(C(=O)Nc2ccc3nn(C)cc3c2)N2CC(=O)N(c3cc(Cl)ccc3-n3cc(Cl)nn3)CC2=O)n1` (centres unmarked) [Example 133, 2-(4-(5-chloro-2-(4-chloro-1H-1,2,3-triazol-1-yl)phenyl)-2,5-dioxopiperazin-1-yl)-N-(2-methyl-2H-indazol-5-yl)-3-(1-(methyl-d3)-1H-pyrazol-3-yl)propanamide], the “CT2” value in the experiment with human plasma amounted to 14.8 µM.
With `CNC(=O)c1ccc(NC(=O)C(Cc2ccccc2)N2CC(=O)N(c3cc(Cl)ccc3-n3cc(Cl)nn3)CC2=O)cc1F` (centres unmarked) [Example 42, 4-(2-(4-(5-Chloro-2-(4-chloro-1H-1,2,3-triazol-1-yl)phenyl)-2,5-dioxopiperazin-1-yl)-3-phenylpropanamido)-2-fluoro-N-methylbenzamide], in the experiment with human plasma, the “CT2” value turned out to be 16.3 µM.
Regarding `Cn1cc2cc(NC(=O)C(Cc3ccn(C(F)F)n3)N3CC(=O)N(c4cc(Cl)ccc4-n4cc(Cl)nn4)CC3=O)ccc2n1` (centres unmarked) [Example 132, 2-(4-(5-chloro-2-(4-chloro-1H-1,2,3-triazol-1-yl)phenyl)-2,5-dioxopiperazin-1-yl)-3-(1-(difluoromethyl)-1H-pyrazol-3-yl)-N-(2-methyl-2H-indazol-5-yl)propanamide], the “CT2” value in the experiment on human plasma was 12.7 µM.
The same measure, in the same setting: next, `Cn1cc2cc(NC(=O)C(Cc3ccn(C4CC4)n3)N3CC(=O)N(c4cc(Cl)ccc4-n4cc(Cl)nn4)CC3=O)ccc2n1` (centres unmarked) [Example 123, 2-(4-(5-chloro-2-(4-chloro-1H-1,2,3-triazol-1-yl)phenyl)-2,5-dioxopiperazin-1-yl)-3-(1-cyclopropyl-1H-pyrazol-3-yl)-N-(2-methyl-2H-indazol-5-yl)propanamide]: 12.8 µM; `Cn1cc2cc(NC(=O)C(Cc3cccnc3)N3CC(=O)N(c4cc(Cl)ccc4-n4cc(Cl)nn4)CC3=O)ccc2n1` (centres unmarked) [Example 43, 2-(4-(5-Chloro-2-(4-chloro-1H-1,2,3-triazol-1-yl)phenyl)-2,5-dioxopiperazin-1-yl)-N-(2-methyl-2H-indazol-5-yl)-3-(pyridin-3-yl)propanamide]: 19.6 µM.
The same measure, in the same setting: next, `NC(=O)c1ccc(NC(=O)C(Cc2ccc(F)cc2)N2CC(=O)N(c3cc(Cl)ccc3-n3cc(Cl)nn3)CC2=O)cc1F` (centres unmarked) [Example 135, 4-(2-(4-(5-chloro-2-(4-chloro-1H-1,2,3-triazol-1-yl)phenyl)-2,5-dioxopiperazin-1-yl)-3-(4-fluorophenyl)propanamido)-2-fluorobenzamide]: 19.2 µM; `Cn1cc2cc(NC(=O)C(CCOC(C)(C)C)N3CC(=O)N(c4cc(Cl)ccc4-n4cc(Cl)nn4)CC3=O)ccc2n1` (centres unmarked) [Example 122, 4-(tert-butoxy)-2-(4-(5-chloro-2-(4-chloro-1H-1,2,3-triazol-1-yl)phenyl)-2,5-dioxopiperazin-1-yl)-N-(2-methyl-2H-indazol-5-yl)butanamide]: 18.7 µM.
The same measure, in the same setting: the same measure for `CNC(=O)c1ccc(NC(=O)C(Cc2ccccc2)N2CC(=O)N(c3cc(Cl)ccc3-n3cnnn3)CC2=O)cn1` (centres unmarked) [Example 29, 5-(2-(4-(5-Chloro-2-(1H-tetrazol-1-yl)phenyl)-2,5-dioxopiperazin-1-yl)-3-phenylpropanamido)-N-methylpicolinamide]: 6.7 µM; for `N#Cc1ccc(NC(=O)C(Cc2ccccc2)N2CC(=O)N(c3cc(Cl)ccc3-n3cnnn3)CC2=O)cc1` (centres unmarked) [Example 16, 2-(4-(5-chloro-2-(1H-tetrazol-1-yl)phenyl)-2,5-dioxopiperazin-1-yl)-N-(4-cyanophenyl)-3-phenylpropanamide]: 15.6 µM; for `Cn1cc2cc(NC(=O)C(Cc3ccncc3)N3CC(=O)N(c4cc(Cl)ccc4-n4cc(Cl)nn4)CC3=O)ccc2n1` (centres unmarked) [Example 105, 2-(4-(5-chloro-2-(4-chloro-1H-1,2,3-triazol-1-yl)phenyl)-2,5-dioxopiperazin-1-yl)-N-(2-methyl-2H-indazol-5-yl)-3-(pyridin-4-yl)propanamide]: 10.1 µM.
Consider `Cn1cc2cc(NC(=O)C(CC3CCC3)N3CC(=O)N(c4cc(Cl)ccc4-n4cnnn4)CC3=O)ccc2n1` (centres unmarked) [Example 39, 2-(4-(5-Chloro-2-(1H-tetrazol-1-yl)phenyl)-2,5-dioxopiperazin-1-yl)-3-cyclobutyl-N-(2-methyl-2H-indazol-5-yl)propanamide], for which the “CT2” value with human plasma was determined as 12.7 µM.
